By IC50 is commonly meant the point on the concentration scale where inhibition reaches its midpoint.

SMILES strings stand for the structures. Positions of bridges follow the written chain, without caps; N, C: chain ends. Non-standard residues stand in square brackets, D forms with d. Residues, ends and D or L forms follow the SMILES beside them. Bip = N[C@@H](Cc1ccc(-c2ccccc2)cc1)C(=O)O; NMeF = CN[C@@H](Cc1ccccc1)C(=O)O; 3Pal = N[C@@H](Cc1cccnc1)C(=O)O; NMeA = CN[C@@H](C)C(=O)O; Dab = NCC[C@H](N)C(=O)O

In the experiment the target is T1, human PD-1 (Jurkat-PD-1 cells) / PE-labeled human PD-L1-Ig (Homo sapiens, UniProt Q15116).
T1 construct: expressed in transfected cells; host or cells: Jurkat cell line over-expressing human PD-1
T1 sequence (Q15116 25-288): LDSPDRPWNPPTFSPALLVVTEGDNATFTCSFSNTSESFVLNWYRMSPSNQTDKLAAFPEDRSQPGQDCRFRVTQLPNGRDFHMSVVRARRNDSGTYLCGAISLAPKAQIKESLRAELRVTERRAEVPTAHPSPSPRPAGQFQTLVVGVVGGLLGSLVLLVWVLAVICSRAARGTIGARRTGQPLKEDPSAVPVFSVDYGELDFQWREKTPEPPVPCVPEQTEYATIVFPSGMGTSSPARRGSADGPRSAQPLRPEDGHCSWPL
Kind of experiment: Jurkat-PD-1 Cell Binding High-Content Screening Assay (CBA); Jurkat hPD1-PDL1 assay. The settings on record: Jurkat cell line over-expressing human PD-1; PE-labeled PD-L1-Ig 20 nM final; compound incubated 2 hours at 37° C.; read-out: Jurkat HPD1-PDL1 IC50. The procedure, abridged: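 Jurkat cells overexpressing human PD-1 (8×10^3 per well, DMEM with 10% FCS) were preincubated with compound for 2 hours at 37° C. PE-labeled human PD-L1-Ig was then added at 20 nM final. Binding was quantified by high-content imaging.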
With `CC(C)C[C@@H]1NC(=O)[C@H](CCN)NC(=O)[C@H](Cc2ccccc2)N(C)C(=O)[C@H](C)N(C)C(=O)[C@H](CCCNC(=N)N)NC(=O)[C@H](Cc2ccc(-c3ccccc3)cc2)NC(=O)[C@H](C(C)C)NC(=O)[C@H](Cc2c[nH]c3ccccc23)NC(=O)[C@H](CC(=O)O)NC(=O)[C@H](Cc2ccc(O)cc2)NC(=O)[C@H](Cc2ccccc2)NC(=O)CSC[C@@H](C(=O)N[C@@H](C)C(N)=O)NC(=O)[C@H](CO)NC(=O)[C@H](C(C)C)NC1=O` [Example 1304] ({CH2CO}-FYDWV[Bip]R[NMeA][NMeF][Dab]LVSCA-NH2; thioether N-14), the IC50 was 60 nM.
In the case of `CC(C)C[C@@H]1NC(=O)CSC[C@@H](C(=O)N[C@@H](C)C(N)=O)NC(=O)[C@H](CO)NC(=O)[C@H](C(C)C)NC(=O)[C@H](CC(C)C)NC(=O)[C@H](CCN)NC(=O)[C@H](Cc2ccccc2)N(C)C(=O)[C@H](C)N(C)C(=O)[C@H](CCCNC(=N)N)NC(=O)[C@H](Cc2ccc(-c3ccccc3)cc2)NC(=O)[C@H](C(C)C)NC(=O)[C@H](Cc2c[nH]c3ccccc23)NC(=O)[C@H](CC(=O)O)NC(=O)[C@H](Cc2ccc(O)cc2)NC1=O` [Example 1305] ({CH2CO}-LYDWV[Bip]R[NMeA][NMeF][Dab]LVSCA-NH2; thioether N-14) it was 60 nM; in that of `CC(C)C[C@@H]1NC(=O)[C@H](CCN)NC(=O)[C@H](Cc2ccccc2)N(C)C(=O)[C@H](C)N(C)C(=O)[C@H](CCCNC(=N)N)NC(=O)[C@H](Cc2ccc(-c3ccccc3)cc2)NC(=O)[C@H](C(C)C)NC(=O)[C@H](Cc2c[nH]c3ccccc23)NC(=O)[C@H](CC(=O)O)NC(=O)[C@H](Cc2ccc(O)cc2)NC(=O)[C@H](Cc2cccnc2)NC(=O)CSC[C@@H](C(=O)N[C@@H](C)C(N)=O)NC(=O)[C@H](CO)NC(=O)[C@H](C(C)C)NC1=O` [Example 1306] ({CH2CO}-[3Pal]YDWV[Bip]R[NMeA][NMeF][Dab]LVSCA-NH2; thioether N-14), 460 nM.
As for `CC(C)C[C@@H]1NC(=O)[C@H](CCN)NC(=O)[C@H](Cc2ccccc2)N(C)C(=O)[C@H](C)N(C)C(=O)[C@H](CCCNC(=N)N)NC(=O)[C@H](Cc2ccc(-c3ccccc3)cc2)NC(=O)[C@H](C(C)C)NC(=O)[C@H](Cc2c[nH]c3ccccc23)NC(=O)[C@H](CC(=O)O)NC(=O)[C@H](Cc2ccc(O)cc2)NC(=O)[C@H](CCC(N)=O)NC(=O)CSC[C@@H](C(=O)N[C@@H](C)C(N)=O)NC(=O)[C@H](CO)NC(=O)[C@H](C(C)C)NC1=O` [Example 1307] ({CH2CO}-QYDWV[Bip]R[NMeA][NMeF][Dab]LVSCA-NH2; thioether N-14), the IC50 came to 170 nM.
For the molecule `CC(C)C[C@@H]1NC(=O)CSC[C@@H](C(=O)N[C@@H](C)C(N)=O)NC(=O)[C@H](CO)NC(=O)[C@H](C(C)C)NC(=O)[C@H](CC(C)C)NC(=O)[C@H](CCCNC(=N)N)NC(=O)[C@H](Cc2ccccc2)N(C)C(=O)[C@H](C)N(C)C(=O)[C@H](CCCNC(=N)N)NC(=O)[C@H](Cc2ccc(-c3ccccc3)cc2)NC(=O)[C@H](C(C)C)NC(=O)[C@H](Cc2c[nH]c3ccccc23)NC(=O)[C@H](CC(=O)O)NC(=O)[C@H](Cc2ccc(O)cc2)NC1=O` [Example 1308] ({CH2CO}-LYDWV[Bip]R[NMeA][NMeF]RLVSCA-NH2; thioether N-14), the IC50 is 410 nM.
In the case of `CC(C)C[C@@H]1NC(=O)[C@H](CCN)NC(=O)[C@H](Cc2ccccc2)N(C)C(=O)[C@H](C)N(C)C(=O)[C@H](CCCNC(=N)N)NC(=O)[C@H](Cc2ccc(-c3ccccc3)cc2)NC(=O)[C@H](C(C)C)NC(=O)[C@H](Cc2c[nH]c3ccccc23)NC(=O)[C@H](CC(=O)O)NC(=O)[C@H](Cc2ccc(O)cc2)NC(=O)[C@H](CCC(N)=O)NC(=O)CSC[C@@H](C(=O)NCC(N)=O)NC(=O)[C@H](CO)NC(=O)[C@H](C(C)C)NC1=O` [Example 1309] ({CH2CO}-QYDWV[Bip]R[NMeA][NMeF][Dab]LVSCG-NH2; thioether N-14) it was 340 nM; in that of `CC(C)C[C@@H]1NC(=O)[C@H](CCCNC(=N)N)NC(=O)[C@H](Cc2ccccc2)N(C)C(=O)[C@H](C)N(C)C(=O)[C@H](CCCNC(=N)N)NC(=O)[C@H](Cc2ccc(-c3ccccc3)cc2)NC(=O)[C@H](C(C)C)NC(=O)[C@H](Cc2c[nH]c3ccccc23)NC(=O)[C@H](CC(=O)O)NC(=O)[C@H](Cc2ccc(O)cc2)NC(=O)[C@H](CC(N)=O)NC(=O)CSC[C@@H](C(=O)NCC(N)=O)NC(=O)[C@H]([C@@H](C)O)NC(=O)[C@H](C(C)C)NC1=O` [Example 1310] ({CH2CO}-NYDWV[Bip]R[NMeA][NMeF]RLVTCG-NH2; thioether N-14), 340 nM; in that of `CC(C)C[C@@H]1NC(=O)[C@H](CCCNC(=N)N)NC(=O)[C@H](Cc2ccccc2)N(C)C(=O)[C@H](C)N(C)C(=O)[C@H](CCCNC(=N)N)NC(=O)[C@H](Cc2ccc(-c3ccccc3)cc2)NC(=O)[C@H](C(C)C)NC(=O)[C@H](Cc2c[nH]c3ccccc23)NC(=O)[C@H](CC(=O)O)NC(=O)[C@H](Cc2ccc(O)cc2)NC(=O)[C@H](CCC(N)=O)NC(=O)CSC[C@@H](C(=O)NCC(N)=O)NC(=O)[C@H]([C@@H](C)O)NC(=O)[C@H](C(C)C)NC1=O` [Example 1311] ({CH2CO}-QYDWV[Bip]R[NMeA][NMeF]RLVTCG-NH2; thioether N-14), 750 nM.
In the case of `CC(C)C[C@@H]1NC(=O)CSC[C@@H](C(=O)NCC(N)=O)NC(=O)[C@H]([C@@H](C)O)NC(=O)[C@H](C(C)C)NC(=O)[C@H](CC(C)C)NC(=O)[C@H](CCCNC(=N)N)NC(=O)[C@H](Cc2ccccc2)N(C)C(=O)[C@H](C)N(C)C(=O)[C@H](CCCNC(=N)N)NC(=O)[C@H](Cc2ccc(-c3ccccc3)cc2)NC(=O)[C@H](C(C)C)NC(=O)[C@H](Cc2c[nH]c3ccccc23)NC(=O)[C@H](CC(=O)O)NC(=O)[C@H](Cc2ccc(O)cc2)NC1=O` [Example 1312] ({CH2CO}-LYDWV[Bip]R[NMeA][NMeF]RLVTCG-NH2; thioether N-14) it was 760 nM; in that of `CC(C)C[C@@H]1NC(=O)[C@H](CCCCN)NC(=O)[C@H](Cc2ccccc2)N(C)C(=O)[C@H](C)N(C)C(=O)[C@H](CCCNC(=N)N)NC(=O)[C@H](Cc2ccc(-c3ccccc3)cc2)NC(=O)[C@H](C(C)C)NC(=O)[C@H](Cc2c[nH]c3ccccc23)NC(=O)[C@H](CC(=O)O)NC(=O)[C@H](Cc2ccc(O)cc2)NC(=O)[C@H](CCC(N)=O)NC(=O)CSC[C@@H](C(=O)NCC(N)=O)NC(=O)[C@H](CO)NC(=O)[C@H](C(C)C)NC1=O` [Example 1313] ({CH2CO}-QYDWV[Bip]R[NMeA][NMeF]KLVSCG-NH2; thioether N-14), 240 nM; in that of `CC(C)C[C@@H]1NC(=O)[C@H](CCN)NC(=O)[C@H](Cc2ccccc2)N(C)C(=O)[C@H](C)N(C)C(=O)[C@H](CCCNC(=N)N)NC(=O)[C@H](Cc2ccc(-c3ccccc3)cc2)NC(=O)[C@H](C(C)C)NC(=O)[C@H](Cc2c[nH]c3ccccc23)NC(=O)[C@H](CC(=O)O)NC(=O)[C@H](Cc2ccc(O)cc2)NC(=O)[C@H](Cc2cnc[nH]2)NC(=O)CSC[C@@H](C(=O)NCC(N)=O)NC(=O)[C@H](CO)NC(=O)[C@H](C(C)C)NC1=O` [Example 1314] ({CH2CO}-HYDWV[Bip]R[NMeA][NMeF][Dab]LVSCG-NH2; thioether N-14), 90 nM.
In the case of `CC(C)C[C@@H]1NC(=O)[C@H](CCCNC(=N)N)NC(=O)[C@H](Cc2ccccc2)N(C)C(=O)[C@H](CCCNC(=N)N)NC(=O)[C@H](CCCNC(=N)N)NC(=O)[C@H](Cc2ccc(-c3ccccc3)cc2)NC(=O)[C@H](C(C)C)NC(=O)[C@H](Cc2c[nH]c3ccccc23)NC(=O)[C@H](CC(=O)O)NC(=O)[C@H](Cc2ccc(O)cc2)NC(=O)[C@H](Cc2cnc[nH]2)NC(=O)CSC[C@@H](C(=O)NCC(N)=O)NC(=O)[C@H](CO)NC(=O)[C@H](C(C)C)NC1=O` [Example 1315] ({CH2CO}-HYDWV[Bip]RR[NMeF]RLVSCG-NH2; thioether N-14) it was 530 nM; in that of `CC(C)C[C@@H]1NC(=O)[C@H](CCN)NC(=O)[C@H](Cc2ccccc2)N(C)C(=O)[C@H](C)N(C)C(=O)[C@H](CCCNC(=N)N)NC(=O)[C@H](Cc2ccc(-c3ccccc3)cc2)NC(=O)[C@H](C(C)C)NC(=O)[C@H](Cc2c[nH]c3ccccc23)NC(=O)[C@H](CC(=O)O)NC(=O)[C@H](Cc2ccc(O)cc2)NC(=O)[C@H](Cc2cnc[nH]2)NC(=O)CSC[C@@H](C(=O)N[C@@H](C)C(N)=O)NC(=O)[C@H](CO)NC(=O)[C@H](C(C)C)NC1=O` [Example 1316] ({CH2CO}-HYDWV[Bip]R[NMeA][NMeF][Dab]LVSCA-NH2; thioether N-14), 80 nM.
In the case of `CC(C)C[C@@H]1NC(=O)[C@H](CCCNC(=N)N)NC(=O)[C@H](Cc2ccccc2)N(C)C(=O)[C@H](C)N(C)C(=O)[C@H](CCCNC(=N)N)NC(=O)[C@H](Cc2ccc(-c3ccccc3)cc2)NC(=O)[C@H](C(C)C)NC(=O)[C@H](Cc2c[nH]c3ccccc23)NC(=O)[C@H](CC(=O)O)NC(=O)[C@H](Cc2ccc(O)cc2)NC(=O)[C@H](Cc2cnc[nH]2)NC(=O)CSC[C@@H](C(=O)NCC(N)=O)NC(=O)[C@H]([C@@H](C)O)NC(=O)[C@H](C(C)C)NC1=O` [Example 1317] ({CH2CO}-HYDWV[Bip]R[NMeA][NMeF]RLVTCG-NH2; thioether N-14), the IC50 stood at 60 nM.
The figure for `CC(C)C[C@@H]1NC(=O)[C@H](CCCNC(=N)N)NC(=O)[C@H](Cc2ccccc2)N(C)C(=O)[C@H](C)N(C)C(=O)[C@H](CCCNC(=N)N)NC(=O)[C@H](Cc2ccc(-c3ccccc3)cc2)NC(=O)[C@H](C(C)C)NC(=O)[C@H](Cc2c[nH]c3ccccc23)NC(=O)[C@H](CC(=O)O)NC(=O)[C@H](Cc2ccc(O)cc2)NC(=O)[C@H](CC(N)=O)NC(=O)CSC[C@@H](C(=O)N[C@@H](C)C(N)=O)NC(=O)[C@H]([C@@H](C)O)NC(=O)[C@H](C(C)C)NC1=O` [Example 1318] ({CH2CO}-NYDWV[Bip]R[NMeA][NMeF]RLVTCA-NH2; thioether N-14) is 380 nM.

The values are drawn from US20240360178A1, “MACROCYCLIC IMMUNOMODULATORS” (Bristol-Myers Squibb Company, priority 2021, published 2024).
